We go through 27 compounds from patent US8877769B2, “Heteroaryl-substituted urea modulators of fatty acid amide hydrolase” (Janssen Pharmaceutica NV, priority 2008, dated 2014).

Experiment [1] deals with T1, Rat FAAH (Rattus norvegicus, UniProt P97612).
T1 construct: expressed in transfected cells
T1 sequence (P97612 1-579): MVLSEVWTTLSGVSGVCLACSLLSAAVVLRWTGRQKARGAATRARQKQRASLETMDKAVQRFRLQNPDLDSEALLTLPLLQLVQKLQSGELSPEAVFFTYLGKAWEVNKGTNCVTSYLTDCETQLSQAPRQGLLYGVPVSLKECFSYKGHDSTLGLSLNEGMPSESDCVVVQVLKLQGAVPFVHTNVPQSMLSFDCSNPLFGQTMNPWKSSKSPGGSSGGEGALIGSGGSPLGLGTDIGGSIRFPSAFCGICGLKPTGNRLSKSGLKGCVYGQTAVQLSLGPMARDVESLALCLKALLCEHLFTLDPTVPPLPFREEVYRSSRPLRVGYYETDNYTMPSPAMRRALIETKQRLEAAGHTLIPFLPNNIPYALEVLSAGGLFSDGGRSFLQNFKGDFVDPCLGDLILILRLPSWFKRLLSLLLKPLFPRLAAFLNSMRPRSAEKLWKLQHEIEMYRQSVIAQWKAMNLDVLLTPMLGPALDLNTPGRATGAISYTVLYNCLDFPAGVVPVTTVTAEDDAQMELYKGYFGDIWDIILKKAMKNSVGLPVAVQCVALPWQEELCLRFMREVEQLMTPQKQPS
Nature of the experiment: Assay Method 2: FAAH assay, 3H-anandamide hydrolysis in cell homogenate. It is filed as biochemical. Particulars: average of results obtained, > value = solubility limit or highest concentration tested. How it is done:
A. Transfection of Cells with Rat FAAH
The assay mixture consisted of 50 μL of the cell homogenate, 10 μL of the test compound, and 40 μL of anandamide [1-^3H-ethanolamine] (^3H-AEA, Perkin-Elmer, 10.3 Ci/mmol), which was added last, for a final tracer concentration of 80 nM. The reaction mixture was incubated at rt for 1 h. During the incubation, 96-well Multiscreen filter plates (catalog number MAFCNOB50; Millipore, Bedford, Mass., USA) were loaded with 25 μL of activated charcoal (Multiscreen column loader, catalog number MACL09625, Millipore) and washed once with 100 μL of MeOH. […] After the 1 h incubation, 60 μL of the reaction mixture were transferred to the charcoal plates, which were then assembled on top of the DYNEX plates using Centrifuge Alignment Frames (catalog number MACF09604, Millipore). The unbound labeled ethanolamine was centrifuged through to the bottom plate (5 min at 2000 rpm), which was preloaded with the scintillant, as described above. The plates were sealed and left at rt for 1 h before counting on a Hewlett Packard TopCount.

Experiment [2] concerns the target T2, FAAH (Homo sapiens, UniProt O00519).
T2 sequence (O00519 1-579): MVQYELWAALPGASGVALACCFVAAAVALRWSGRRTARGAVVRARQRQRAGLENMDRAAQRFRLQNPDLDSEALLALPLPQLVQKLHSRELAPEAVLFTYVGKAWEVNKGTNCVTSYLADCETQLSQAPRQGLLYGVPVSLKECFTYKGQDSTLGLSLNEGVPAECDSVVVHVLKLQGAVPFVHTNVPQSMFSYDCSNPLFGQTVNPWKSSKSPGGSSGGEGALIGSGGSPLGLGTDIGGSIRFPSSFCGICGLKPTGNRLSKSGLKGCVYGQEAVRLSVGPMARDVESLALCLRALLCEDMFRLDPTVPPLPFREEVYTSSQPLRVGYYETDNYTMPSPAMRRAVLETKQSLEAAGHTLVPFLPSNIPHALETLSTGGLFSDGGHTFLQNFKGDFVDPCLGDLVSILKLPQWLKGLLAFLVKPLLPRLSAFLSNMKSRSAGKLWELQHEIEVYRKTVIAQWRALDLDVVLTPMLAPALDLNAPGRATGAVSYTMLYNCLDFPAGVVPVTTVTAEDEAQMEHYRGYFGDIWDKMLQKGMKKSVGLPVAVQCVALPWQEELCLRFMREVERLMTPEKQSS
Nature of the experiment: Assay Method 1: FAAH assay, 3H-anandamide hydrolysis in cell homogenate.
Description: The assay mixture consisted of 50 μL of the cell homogenate, 10 μL of the test compound, and 40 μL of anandamide [1-^3H-ethanolamine] (^3H-AEA, Perkin-Elmer, 10.3 Ci/mmol), which was added last, for a final tracer concentration of 80 nM. The reaction mixture was incubated at rt for 1 h. During the incubation, 96-well Multiscreen filter plates (catalog number MAFCNOB50; Millipore, Bedford, Mass., USA) were loaded with 25 μL of activated charcoal (Multiscreen column loader, catalog number MACL09625, Millipore) and washed once with 100 μL of MeOH. […] After the 1 h incubation, 60 μL of the reaction mixture were transferred to the charcoal plates, which were then assembled on top of the DYNEX plates using Centrifuge Alignment Frames (catalog number MACF09604, Millipore). The unbound labeled ethanolamine was centrifuged through to the bottom plate (5 min at 2000 rpm), which was preloaded with the scintillant, as described above. The plates were sealed and left at rt for 1 h before counting on a Hewlett Packard TopCount. • Assay Method 2

As to `O=C(Nc1cnc2cccnn12)N1CCN(Cc2cccc(Oc3ccc(Cl)cc3)c2)CC1` [Example 1, 4-[3-(4-Chloro-phenoxy)-benzyl]-piperazine-1-carboxylic acid imidazo[1,2-b]pyridazin-3-ylamide], in experiment [1], inhibition was half-maximal at 16 nM (IC50).

For the compound `O=C(Nc1cnc2cccnn12)N1CCN(Cc2ccc(Cl)c(Cl)c2)CC1` [Example 2, 4-(3,4-Dichloro-benzyl)-piperazine-1-carboxylic acid imidazo[1,2-b]pyridazin-3-ylamide], the IC50 (as a rule, the concentration that gives 50% inhibition) came out at 110 nM in experiment [1] and 62 nM in experiment [2].

Consider `O=C(Nc1cnc2cccnn12)N1CCN(Cc2ccc3c(c2)OC(F)(F)O3)CC1` [Example 3, 4-(2,2-Difluoro-benzo[1,3]dioxol-5-ylmethyl)-piperazine-1-carboxylic acid imidazo[1,2-b]pyridazin-3-ylamide], for which the IC50 in experiment [1] worked out at 160 nM; in experiment [2] it was 230 nM.

Regarding `O=C(Nc1cnc2cccnn12)N1CCN(Cc2ccc(OC(F)(F)F)c(Cl)c2)CC1` [Example 4, 4-(3-Chloro-4-trifluoromethoxy-benzyl)-piperazine-1-carboxylic acid imidazo[1,2-b]pyridazin-3-ylamide], the IC50 in experiment [1] came out at 30 nM; in experiment [2] it was 54 nM.

For the compound `O=C(Nc1noc2ncccc12)N1CCN(Cc2ccc3c(c2)OC(F)(F)O3)CC1` [Example 5, 4-(2,2-Difluoro-benzo[1,3]dioxol-5-ylmethyl)-piperazine-1-carboxylic acid isoxazolo[5,4-b]pyridin-3-ylamide], the IC50 in experiment [1] was determined as 8000 nM; in experiment [2], 1600 nM.

Consider `O=C(Nc1noc2ncccc12)N1CCN(Cc2ccc(Br)c(F)c2)CC1` [Example 6, 4-(4-Bromo-3-fluoro-benzyl)-piperazine-1-carboxylic acid isoxazolo[5,4-b]pyridin-3-ylamide], for which the IC50 in experiment [1] is more than 10000 nM.

As to `O=C(Nc1noc2ncccc12)N1CCN(Cc2ccc3c(c2)OCO3)CC1` [Example 7, 4-Benzo[1,3]dioxol-5-ylmethyl-piperazine-1-carboxylic acid isoxazolo[5,4-b]pyridin-3-ylamide], the IC50 in experiment [1] and in experiment [2] was more than 10000 nM each time.

For `O=C(Nc1noc2ncccc12)N1CCN(Cc2cccc(Oc3ccccc3Cl)c2)CC1` [Example 8, 4-[3-(2-Chloro-phenoxy)-benzyl]-piperazine-1-carboxylic acid isoxazolo[5,4-b]pyridin-3-ylamide], the IC50 in experiment [1] is 8000 nM; in experiment [2] it was 1500 nM.

For the compound `O=C(Nc1noc2ncccc12)N1CCN(Cc2ccc3cc[nH]c3c2)CC1` [Example 9], the IC50 in experiment [1] and in experiment [2] was more than 10000 nM throughout.

`O=C(Nc1noc2ncccc12)N1CCN(Cc2cccc(Oc3ccc(Cl)cc3)c2)CC1` [Example 20, 4-[3-(4-Chloro-phenoxy)-benzyl]-piperazine-1-carboxylic acid isoxazolo[5,4-b]pyridin-3-ylamide]: in experiment [1], half-maximal inhibition (IC50) required 7 nM. This counts as single-digit nanomolar.

`O=C(Nc1noc2ncccc12)N1CCN(Cc2ccc3ccccc3c2)CC1` [Example 29, 4-Naphthalen-2-ylmethyl-piperazine-1-carboxylic acid isoxazolo[5,4-b]pyridin-3-ylamide]: the half-maximal inhibitory concentration (IC50) in experiment [2] worked out at 370 nM.

Compound `O=C(Nc1noc2ccncc12)N1CCN(Cc2cccc(Oc3ccc(Cl)cc3)c2)CC1` [Example 40, 4-[3-(4-Chloro-phenoxy)-benzyl]-piperazine-1-carboxylic acid isoxazolo[4,5-c]pyridin-3-ylamide] showed an IC50 in experiment [1] of 40 nM.

Compound `O=C(Nc1noc2cccnc12)N1CCN(Cc2cccc(Oc3ccc(Cl)cc3)c2)CC1` [Example 41, 4-[3-(4-Chloro-phenoxy)-benzyl]-piperazine-1-carboxylic acid isoxazolo[4,5-b]pyridin-3-ylamide] came in with an IC50 in experiment [1] of 17 nM. Compared with the last compound, the IC50 is about 2.4-fold lower.

Compound `O=C(Nc1cccc2cn[nH]c12)N1CCN(Cc2cccc(Oc3ccc(Cl)cc3)c2)CC1` [Example 48, 4-[3-(4-Chloro-phenoxy)-benzyl]-piperazine-1-carboxylic acid (1H-indazol-7-yl)-amide] came in with an IC50 in experiment [1] of 3000 nM.

Take `O=C(Nc1cccc2cn[nH]c12)N1CCN(Cc2ccc3c(c2)OC(F)(F)O3)CC1` [Example 49, 4-(2,2-Difluoro-benzo[1,3]dioxol-5-ylmethyl)-piperazine-1-carboxylic acid (1H-indazol-7-yl)-amide]: in experiment [2], the IC50 is more than 10000 nM.

In experiment [1], `O=C(Nc1ccc2nccn2c1)N1CCN(Cc2cccc(Oc3ccc(Cl)cc3)c2)CC1` [Example 50, 4-[3-(4-Chloro-phenoxy)-benzyl]-piperazine-1-carboxylic acid imidazo[1,2-a]pyridin-6-ylamide] had an IC50 of 1200 nM.

`O=C(Nc1cnc2ccccn12)N1CCN(Cc2cccc(Oc3ccc(Cl)cc3)c2)CC1` [Example 57, 4-[3-(4-Chloro-phenoxy)-benzyl]-piperazine-1-carboxylic acid imidazo[1,2-a]pyridin-3-ylamide] displayed an IC50 in experiment [1] of 98 nM.

`O=C(Nc1cnc2ccccn12)N1CCN(Cc2ccc3c(c2)OC(F)(F)O3)CC1` [Example 58, 4-(2,2-Difluoro-benzo[1,3]dioxol-5-ylmethyl)-piperazine-1-carboxylic acid imidazo[1,2-a]pyridin-3-ylamide] returned an IC50 in experiment [1] of 2000 nM.

For `O=C(Nc1cnc2[nH]ccc2c1)N1CCN(Cc2cccc(Oc3ccc(Cl)cc3)c2)CC1` [Example 60, 4-[3-(4-Chloro-phenoxy)-benzyl]-piperazine-1-carboxylic acid (1H-pyrrolo[2,3-b]pyridin-5-yl)-amide], the IC50 in experiment [1] turned out to be 16 nM.

Consider `Cc1nc2cc(NC(=O)N3CCN(Cc4cccc(Oc5ccc(Cl)cc5)c4)CC3)ccc2o1` [Example 63, 4-[3-(4-Chloro-phenoxy)-benzyl]-piperazine-1-carboxylic acid (2-methyl-benzooxazol-5-yl)-amide], for which the IC50 in experiment [1] was 120 nM.

For the compound `O=C(Nc1nc2ccccc2o1)N1CCN(Cc2cccc(Oc3ccc(Cl)cc3)c2)CC1` [Example 66, 4-[3-(4-Chloro-phenoxy)-benzyl]-piperazine-1-carboxylic acid benzooxazol-2-ylamide], in experiment [2], half-maximal inhibition (IC50) was put at 880 nM.

For `O=C(Nc1cccc2nccn12)N1CCN(Cc2cccc(Oc3ccc(Cl)cc3)c2)CC1` [Example 69, 4-[3-(4-Chloro-phenoxy)-benzyl]-piperazine-1-carboxylic acid imidazo[1,2-a]pyridin-5-ylamide], in experiment [1], the IC50 worked out at 6 nM.

As for `O=C(Nc1ccn2ccnc2c1)N1CCN(Cc2cccc(Oc3ccc(Cl)cc3)c2)CC1` [Example 72, 4-[3-(4-Chloro-phenoxy)-benzyl]-piperazine-1-carboxylic acid imidazo[1,2-a]pyridin-7-ylamide], in experiment [1], it took 660 nM to reach half-maximal inhibition (IC50).

The compound `O=C(Nc1cc2nccn2cn1)N1CCN(Cc2cccc(Oc3ccc(Cl)cc3)c2)CC1` [Example 74, 4-[3-(4-Chloro-phenoxy)-benzyl]-piperazine-1-carboxylic acid imidazo[1,2-c]pyrimidin-7-ylamide] displayed an IC50 in experiment [1] of 500 nM.

For the compound `O=C(Nc1ccn2ccnc2n1)N1CCN(Cc2cccc(Oc3ccc(Cl)cc3)c2)CC1` [Example 75, 4-[3-(4-Chloro-phenoxy)-benzyl]-piperazine-1-carboxylic acid imidazo[1,2-a]pyrimidin-7-ylamide], 830 nM corresponded to half-maximal inhibition in experiment [1] (IC50).

The compound `O=C(Nc1ccnc2nccn12)N1CCN(Cc2cccc(Oc3ccc(Cl)cc3)c2)CC1` [Example 76, 4-[3-(4-Chloro-phenoxy)-benzyl]-piperazine-1-carboxylic acid imidazo[1,2-a]pyrimidin-5-ylamide] came in with an IC50 in experiment [1] of 31 nM.

As for `O=C(Nc1nocc1Cl)N1CCN(Cc2cccc(Oc3ccc(Cl)cc3)c2)CC1` [Example 85, 4-[3-(4-Chloro-phenoxy)-benzyl]-piperazine-1-carboxylic acid (4-chloro-isoxazol-3-yl)-amide], the IC50 in experiment [1] amounted to 22 nM.
